Laboratory results reported in ChEMBL document CHEMBL1201862, “PubChem BioAssay data set” (2004).
Activity calls are given as the source filed them.

Key:
[1] = biological target: T1, Aminopeptidase N (Plasmodium falciparum FcB1/Columbia, UniProt O96935); assay: P. falciparum M1AAP inhibitors, biochemical, fluorogenic H-Leu-NHMec substrate, 1536-well (AID 1445); set-up: species or system Plasmodium falciparum 3D7, 3D7
T1 sequence (O96935 whole entry): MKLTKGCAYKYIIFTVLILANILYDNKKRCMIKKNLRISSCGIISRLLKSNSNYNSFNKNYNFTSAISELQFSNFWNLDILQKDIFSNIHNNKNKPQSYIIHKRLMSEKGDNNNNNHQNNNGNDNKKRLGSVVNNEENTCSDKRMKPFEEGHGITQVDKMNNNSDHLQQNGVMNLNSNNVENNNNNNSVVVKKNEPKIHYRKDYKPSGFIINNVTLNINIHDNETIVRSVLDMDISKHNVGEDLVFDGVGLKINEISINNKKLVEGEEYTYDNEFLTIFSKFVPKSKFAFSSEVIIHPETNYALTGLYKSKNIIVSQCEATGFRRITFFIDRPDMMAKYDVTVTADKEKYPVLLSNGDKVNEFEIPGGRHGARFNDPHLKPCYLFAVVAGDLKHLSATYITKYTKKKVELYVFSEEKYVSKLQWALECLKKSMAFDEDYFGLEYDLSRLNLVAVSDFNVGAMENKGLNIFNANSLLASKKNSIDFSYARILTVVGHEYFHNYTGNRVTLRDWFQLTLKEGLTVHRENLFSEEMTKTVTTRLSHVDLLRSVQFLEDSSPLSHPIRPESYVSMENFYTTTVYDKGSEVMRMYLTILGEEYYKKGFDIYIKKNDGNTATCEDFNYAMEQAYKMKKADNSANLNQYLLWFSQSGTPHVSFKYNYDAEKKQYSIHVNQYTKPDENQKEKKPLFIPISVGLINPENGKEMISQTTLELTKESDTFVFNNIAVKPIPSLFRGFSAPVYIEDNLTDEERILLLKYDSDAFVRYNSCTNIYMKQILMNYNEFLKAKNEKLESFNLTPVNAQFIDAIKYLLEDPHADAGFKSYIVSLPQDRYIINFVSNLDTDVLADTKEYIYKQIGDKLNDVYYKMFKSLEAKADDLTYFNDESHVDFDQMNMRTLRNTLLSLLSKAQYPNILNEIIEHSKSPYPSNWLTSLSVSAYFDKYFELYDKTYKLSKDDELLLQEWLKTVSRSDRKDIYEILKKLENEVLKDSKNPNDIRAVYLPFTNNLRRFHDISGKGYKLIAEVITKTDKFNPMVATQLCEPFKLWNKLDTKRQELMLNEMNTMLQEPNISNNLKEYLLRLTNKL

[2] = biological target: Prothrombin (Homo sapiens, UniProt P00734); assay: Thrombin 1536 HTS Dose Response Confirmation. [Related pubchem assays: 1046 (Thrombin 1536 HTS; hits were confirmed in this assay)]; type: functional
[3] = growth suppression of PTEN-null colon cells, dose response, cell-based, HCT116 PTEN knockout (AID 1047); type: functional;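 also: HCT116 colon tumor cells with PTEN knocked out; cells exposed to compound for 60 hours before readout; potency for loss of cell viability measured by luminescence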
[4] = biological target: T2, Sentrin-specific protease 8 (Homo sapiens, UniProt Q96LD8); type: functional;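 also: kinetic enzyme assay of SENP8 cleaving a Nedd8 protein substrate, dose-response confirmation of screening hits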
T2 sequence (Q96LD8 whole entry): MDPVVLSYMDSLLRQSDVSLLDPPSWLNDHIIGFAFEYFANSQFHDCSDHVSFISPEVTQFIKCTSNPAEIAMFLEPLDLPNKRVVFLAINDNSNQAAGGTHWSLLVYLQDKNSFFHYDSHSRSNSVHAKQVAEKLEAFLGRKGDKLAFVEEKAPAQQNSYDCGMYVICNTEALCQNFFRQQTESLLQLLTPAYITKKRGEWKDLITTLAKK

[5] = biological target: Heat shock protein HSP 90-alpha (Homo sapiens, UniProt P07900); type: functional, organism-based
[6] = cells; type: functional
[7] = THP-1 cell cytotoxicity, dose response, cytotoxicity control for non-replicating M. tuberculosis project (AID 489025); type: functional
[8] = growth suppression of beta-catenin-knockout colon cells, dose response, cell-based, HCT116, human colon tumor (AID 1045); type: functional;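 also: HCT116 colon tumor cells with beta catenin knocked out; cells exposed to compound for 60 hours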
[9] = biological target: T3, E3 ubiquitin-protein ligase XIAP (Homo sapiens, UniProt P98170); assay: Counter Screen using XIAP-Bir3 for Chemical Antagonists of Bir1/2 domains of IAP-family anti-apoptotic proteins. [Related pubchem assays (depositor defined):AID1018, AID1449, AID1514, AID1638, AID1749, AID1750, AID488957, AID488963]
[10] = biological target: T3, E3 ubiquitin-protein ligase XIAP; assay: XIAP antagonists, biochemical, IAP family, fluorescence polarization (AID 1018); type: functional
[11] = biological target: Peroxisome proliferator-activated receptor gamma/Nuclear receptor coactivator 2 (Homo sapiens, UniProt P37231); assay: (§1) TR-FRET dose response biochemical High Throughput Screening assay for agonists of the steroid receptor coactivator 2 (SRC-2) recruitment by the peroxisome proliferator-activated receptor gamma (PPAR gamma): non-selective agonists. [Related pubchem assays: 1297, 1032 ]; type: functional
[12] = biological target: Peroxisome proliferator-activated receptor gamma/Nuclear receptor coactivator 1 (Homo sapiens, UniProt P37231); assay: as §1, with “1 (SRC-1)” for “2 (SRC-2)”, “assays (depositor defined):AID1300, AID1808, AID504735, AID631]” for “assays: 1297, 1032 ]”; type: protein assay
[13] = biological target: Peroxisome proliferator-activated receptor gamma/Nuclear receptor coactivator 3 (Homo sapiens, UniProt P37231); assay: as §1, with “3 (SRC-3)” for “2 (SRC-2)”, “1301 (Confirmation screen.), 1048 (Primary screen.)]” for “1297, 1032 ]”; type: functional
[14] = HEK293T cytotoxicity, dose response, cytotoxicity control for miR-122 modulator project, cell-based, activator set, cherry-pick (AID 720690); type: functional;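 also: HEK293T human cells scored for general mammalian cytotoxicity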
[15] = biological target: Cytochrome P450 2C19 (Homo sapiens, UniProt P33261); assay: Cytochrome panel assay with activity outcomes. Panel member name: p450-cyp2c19 Compounds with AC50 equal or less than 10 uM are considered active; type: functional; details: read-out: AC50
[16] = tested on: P388/ADR; assay: cells; type: functional; details: Mus musculus
[17] = tested on: SN12K1; assay: cells; type: functional; details: Homo sapiens
[18] = tested on: P388; assay: cells; type: functional; details: Mus musculus
[19] = biological target: Genome polyprotein (dengue virus type 2, UniProt P29990); assay: Dengue-2 NS5 methyltransferase inhibitors, primary screen, biochemical, confirmation dose response (AID 588689); type: functional
[20] = biological target: T4, Rac GTPase-activating protein 1 (Homo sapiens, UniProt Q9H0H5); assay: MgcRacGAP GTPase-activating activity inhibitors, confirmation, biochemical, ADP Hunter fluorescence, primary and confirmatory (AID 624330); type: functional
T4 sequence (Q9H0H5 whole entry): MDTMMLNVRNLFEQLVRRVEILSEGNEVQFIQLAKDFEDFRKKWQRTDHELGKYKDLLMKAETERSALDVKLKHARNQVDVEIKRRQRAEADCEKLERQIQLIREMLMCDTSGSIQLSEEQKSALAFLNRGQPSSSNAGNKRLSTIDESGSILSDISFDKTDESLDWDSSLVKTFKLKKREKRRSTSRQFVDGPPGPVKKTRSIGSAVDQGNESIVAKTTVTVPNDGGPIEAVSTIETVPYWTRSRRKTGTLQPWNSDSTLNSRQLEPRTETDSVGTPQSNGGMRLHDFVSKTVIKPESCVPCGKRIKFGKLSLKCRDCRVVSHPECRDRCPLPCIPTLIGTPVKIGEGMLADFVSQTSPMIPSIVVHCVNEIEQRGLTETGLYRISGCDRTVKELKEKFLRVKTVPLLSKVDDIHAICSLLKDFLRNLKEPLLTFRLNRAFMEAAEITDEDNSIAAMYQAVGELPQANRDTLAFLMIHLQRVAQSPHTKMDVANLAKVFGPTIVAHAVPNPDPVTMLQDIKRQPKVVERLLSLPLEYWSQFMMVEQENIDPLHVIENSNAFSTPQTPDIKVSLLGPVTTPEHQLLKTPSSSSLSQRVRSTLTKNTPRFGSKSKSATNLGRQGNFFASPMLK

[21] = biological target: Mitogen-activated protein kinase 10 (Homo sapiens, UniProt P53779); assay: Dose response biochemical screening assay for inhibitors of c-Jun N-Terminal Kinase 3 (JNK3). [Related pubchem assays: 746 ]
[22] = HEp-2 cell cytotoxicity, dose response, cytotoxicity control for RSV inhibitor project, HTS (AID 2410); type: functional; details: human respiratory syncytial virus
[23] = miR-122 activators in hepatoma reporter cells, dose response, cell-based, Huh7 psiCHECK-miR122, Renilla luciferase, cherry-picked (AID 651956); type: functional;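 also: huh7 hepatoma cells stably carrying a psiCHECK-2 miR-122 sensor plasmid; renilla luciferase signal reporting endogenous miR-122 activity after 48 h compound exposure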
[24] = off-target signal loss in HeLa-CEM21 co-culture – HeLa F-luc CTL cells, cherry-picked, counter-screen for HIV-1 Env fusion inhibitor project, dose response (AID 652040); type: functional, cell-based;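 also: potency for signal decrease marking cytotoxic or nonspecific inhibition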
[25] = inhibitors of clade B AD8 Env fusion, dose response, cell-based, cherry-pick (AID 652062); type: functional;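 also: luciferase signal from cell-cell fusion driven by HIV-1 clade B AD8 Env; potency is for inhibitors of fusion seen as a drop in luminescence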

Chain of Peroxisome proliferator-activated receptor gamma/Nuclear receptor coactivator 1 (P37231 whole entry): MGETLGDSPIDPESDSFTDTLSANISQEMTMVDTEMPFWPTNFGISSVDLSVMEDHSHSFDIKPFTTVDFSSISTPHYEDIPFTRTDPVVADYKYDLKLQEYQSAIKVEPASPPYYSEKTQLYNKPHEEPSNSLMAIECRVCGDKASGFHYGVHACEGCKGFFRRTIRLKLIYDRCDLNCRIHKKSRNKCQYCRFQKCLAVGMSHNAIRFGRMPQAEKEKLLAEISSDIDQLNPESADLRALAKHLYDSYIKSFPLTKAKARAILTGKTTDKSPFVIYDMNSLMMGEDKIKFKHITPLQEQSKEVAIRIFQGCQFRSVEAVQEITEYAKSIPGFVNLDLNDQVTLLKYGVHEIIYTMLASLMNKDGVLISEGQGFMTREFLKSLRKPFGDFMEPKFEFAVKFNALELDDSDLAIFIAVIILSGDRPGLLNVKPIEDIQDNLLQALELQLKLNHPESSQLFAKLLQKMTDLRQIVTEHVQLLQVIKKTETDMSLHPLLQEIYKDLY
Chain of Peroxisome proliferator-activated receptor gamma/Nuclear receptor coactivator 1 (Q15788 whole entry, further chain): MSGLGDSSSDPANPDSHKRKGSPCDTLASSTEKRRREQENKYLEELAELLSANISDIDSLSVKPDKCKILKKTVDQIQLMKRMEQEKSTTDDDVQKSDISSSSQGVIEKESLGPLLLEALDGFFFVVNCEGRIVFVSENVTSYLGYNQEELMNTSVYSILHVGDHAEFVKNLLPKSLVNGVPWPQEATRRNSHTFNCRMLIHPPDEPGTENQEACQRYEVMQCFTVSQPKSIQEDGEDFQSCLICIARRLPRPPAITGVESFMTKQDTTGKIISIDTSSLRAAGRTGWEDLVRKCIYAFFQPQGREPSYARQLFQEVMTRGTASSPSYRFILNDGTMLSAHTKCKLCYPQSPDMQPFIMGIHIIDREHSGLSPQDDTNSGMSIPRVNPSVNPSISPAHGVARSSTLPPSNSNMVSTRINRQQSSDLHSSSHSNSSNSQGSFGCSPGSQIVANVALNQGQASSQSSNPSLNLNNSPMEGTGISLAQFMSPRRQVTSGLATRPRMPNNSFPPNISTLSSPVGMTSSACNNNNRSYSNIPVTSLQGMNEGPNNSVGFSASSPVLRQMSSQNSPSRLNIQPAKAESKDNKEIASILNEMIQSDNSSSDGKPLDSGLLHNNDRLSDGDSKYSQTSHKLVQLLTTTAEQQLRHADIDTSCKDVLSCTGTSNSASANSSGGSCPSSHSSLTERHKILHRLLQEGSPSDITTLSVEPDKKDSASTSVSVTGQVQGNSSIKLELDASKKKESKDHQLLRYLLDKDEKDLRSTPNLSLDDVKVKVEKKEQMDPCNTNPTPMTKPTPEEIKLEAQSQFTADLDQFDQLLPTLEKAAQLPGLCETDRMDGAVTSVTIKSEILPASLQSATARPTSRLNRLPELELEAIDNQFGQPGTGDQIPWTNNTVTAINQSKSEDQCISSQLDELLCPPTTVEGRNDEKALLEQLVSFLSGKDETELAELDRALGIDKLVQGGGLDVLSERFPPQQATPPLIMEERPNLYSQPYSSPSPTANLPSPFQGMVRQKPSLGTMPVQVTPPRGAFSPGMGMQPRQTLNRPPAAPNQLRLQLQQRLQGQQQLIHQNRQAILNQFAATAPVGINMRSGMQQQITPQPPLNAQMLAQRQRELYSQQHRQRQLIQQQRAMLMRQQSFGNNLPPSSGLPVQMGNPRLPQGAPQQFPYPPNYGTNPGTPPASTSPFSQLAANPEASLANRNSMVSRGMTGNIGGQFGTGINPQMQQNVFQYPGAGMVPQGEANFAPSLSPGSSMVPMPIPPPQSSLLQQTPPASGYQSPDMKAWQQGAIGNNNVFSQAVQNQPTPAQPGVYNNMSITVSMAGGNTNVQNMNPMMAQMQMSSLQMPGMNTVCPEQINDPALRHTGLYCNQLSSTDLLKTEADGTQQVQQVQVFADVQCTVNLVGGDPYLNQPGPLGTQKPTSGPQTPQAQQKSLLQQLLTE
Chain of Peroxisome proliferator-activated receptor gamma/Nuclear receptor coactivator 2 (P37231 whole entry): as the sequence (P37231 whole entry) above
Chain of Peroxisome proliferator-activated receptor gamma/Nuclear receptor coactivator 2 (Q15596 whole entry, further chain): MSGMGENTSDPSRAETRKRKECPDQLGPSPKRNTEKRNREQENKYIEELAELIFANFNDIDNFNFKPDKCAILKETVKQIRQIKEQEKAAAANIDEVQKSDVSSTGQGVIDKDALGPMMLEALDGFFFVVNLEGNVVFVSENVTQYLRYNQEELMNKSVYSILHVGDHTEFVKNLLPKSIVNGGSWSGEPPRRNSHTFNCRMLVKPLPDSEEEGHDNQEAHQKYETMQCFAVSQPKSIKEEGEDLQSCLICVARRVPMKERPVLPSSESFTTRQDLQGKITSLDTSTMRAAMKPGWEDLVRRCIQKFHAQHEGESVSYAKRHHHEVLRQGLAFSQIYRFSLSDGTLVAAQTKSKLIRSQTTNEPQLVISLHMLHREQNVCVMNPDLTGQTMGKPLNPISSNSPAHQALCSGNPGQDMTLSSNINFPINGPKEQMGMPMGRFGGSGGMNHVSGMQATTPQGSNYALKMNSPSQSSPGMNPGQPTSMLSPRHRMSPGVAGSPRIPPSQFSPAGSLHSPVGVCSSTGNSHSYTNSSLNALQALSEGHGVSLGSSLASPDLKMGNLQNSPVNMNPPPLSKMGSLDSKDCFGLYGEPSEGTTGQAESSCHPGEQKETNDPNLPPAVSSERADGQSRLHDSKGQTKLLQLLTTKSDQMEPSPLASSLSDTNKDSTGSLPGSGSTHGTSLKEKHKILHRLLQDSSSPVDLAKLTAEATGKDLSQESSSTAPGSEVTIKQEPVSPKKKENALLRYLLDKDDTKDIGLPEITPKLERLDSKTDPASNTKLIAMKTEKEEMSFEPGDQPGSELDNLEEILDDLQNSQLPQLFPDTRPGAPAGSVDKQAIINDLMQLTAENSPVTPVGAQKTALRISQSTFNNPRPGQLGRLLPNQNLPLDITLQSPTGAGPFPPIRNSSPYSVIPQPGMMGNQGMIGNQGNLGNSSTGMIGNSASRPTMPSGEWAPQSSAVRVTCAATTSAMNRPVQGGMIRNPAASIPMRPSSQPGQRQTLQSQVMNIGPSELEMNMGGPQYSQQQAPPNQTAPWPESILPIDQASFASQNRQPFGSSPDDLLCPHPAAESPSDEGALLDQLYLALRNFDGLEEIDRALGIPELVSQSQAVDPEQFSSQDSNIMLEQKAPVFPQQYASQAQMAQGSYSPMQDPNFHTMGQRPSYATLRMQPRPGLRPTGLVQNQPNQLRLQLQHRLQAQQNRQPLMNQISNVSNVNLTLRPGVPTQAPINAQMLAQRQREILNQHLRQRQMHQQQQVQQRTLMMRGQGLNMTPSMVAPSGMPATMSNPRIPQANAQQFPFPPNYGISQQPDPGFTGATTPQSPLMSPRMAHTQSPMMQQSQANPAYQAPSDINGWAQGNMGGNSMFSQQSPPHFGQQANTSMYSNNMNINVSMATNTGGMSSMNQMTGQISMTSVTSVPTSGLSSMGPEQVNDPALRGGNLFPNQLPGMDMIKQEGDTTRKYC
T3 sequence (P98170 whole entry): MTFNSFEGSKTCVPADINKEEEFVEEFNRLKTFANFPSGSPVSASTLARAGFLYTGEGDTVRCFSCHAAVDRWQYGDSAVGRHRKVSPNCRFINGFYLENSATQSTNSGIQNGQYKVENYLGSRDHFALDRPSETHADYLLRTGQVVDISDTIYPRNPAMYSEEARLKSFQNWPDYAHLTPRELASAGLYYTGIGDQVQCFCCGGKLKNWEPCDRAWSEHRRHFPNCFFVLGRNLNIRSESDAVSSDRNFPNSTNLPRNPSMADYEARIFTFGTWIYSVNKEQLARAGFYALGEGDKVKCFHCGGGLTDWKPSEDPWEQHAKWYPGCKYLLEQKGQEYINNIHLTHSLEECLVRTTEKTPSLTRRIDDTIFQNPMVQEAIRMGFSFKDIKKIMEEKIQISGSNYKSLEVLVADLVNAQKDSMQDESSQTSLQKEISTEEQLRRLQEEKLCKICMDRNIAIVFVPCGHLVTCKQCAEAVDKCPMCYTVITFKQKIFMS
Chain of Mitogen-activated protein kinase 10 (P53779 whole entry): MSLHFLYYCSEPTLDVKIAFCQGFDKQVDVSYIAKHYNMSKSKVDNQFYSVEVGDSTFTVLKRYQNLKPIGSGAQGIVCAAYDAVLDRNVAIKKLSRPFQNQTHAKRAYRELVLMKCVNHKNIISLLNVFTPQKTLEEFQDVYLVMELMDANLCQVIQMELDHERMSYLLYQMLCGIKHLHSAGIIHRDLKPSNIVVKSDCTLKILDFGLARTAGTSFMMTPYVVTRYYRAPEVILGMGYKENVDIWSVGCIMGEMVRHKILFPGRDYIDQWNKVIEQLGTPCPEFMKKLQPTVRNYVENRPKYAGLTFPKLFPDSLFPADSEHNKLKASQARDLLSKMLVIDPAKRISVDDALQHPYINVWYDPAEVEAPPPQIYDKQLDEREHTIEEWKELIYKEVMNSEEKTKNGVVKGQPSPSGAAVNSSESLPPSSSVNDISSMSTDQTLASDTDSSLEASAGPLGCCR

O=C(NNC(=O)c1ccc(O)cc1O)c1ccc(Cl)cc1
IC50 [1]: 58.1 µM (active)

CC(C)NC(=O)c1ccc(C(C)C)cc1
IC50 [2]: > 50 µM (not active)

NC(=O)c1ccc(/N=C/c2ccc([N+](=O)[O-])s2)cc1
EC50 [3]: 5.94 µM (active)
IC50 [4]: 2.47 µM (active)
AC50 [5]: 1.98 µM (active)
IC50 [6]: 13.4 µM (active)
CC50 [7]: 19.2 µM (active)
EC50 [8]: 5.3 µM (active)

c1ccc(N=Nc2cn[nH]c2-c2ccco2)cc1
IC50 [9]: > 100 µM (inactive)
IC50 [10]: > 100 µM (not active)

CC(=O)CSc1ncnc2c1oc1ccccc12
EC50 [11]: > 26.5 µM (not active)
EC50 [12]: > 79.4 µM (inactive)
EC50 [13]: > 79.4 µM (not active)

O=C(C1CC(c2ccc(F)cc2)=NO1)N1CCc2ccccc2C1 (stereo unspecified)
IC50 [9]: > 100 µM (inactive)
IC50 [10]: > 100 µM (not active)

C[C@@H]1CN([C@@H](C)CO)C(=O)c2cccc(NC(=O)c3ccc(-c4nccs4)cc3)c2O[C@H]1CN(C)Cc1ccc2c(c1)OCO2
AC50 [14]: 25.6 µM (active)

Cc1c2cnccc2c(C)c2c1c1ccccc1n2CCOC(=O)c1ccccc1
AC50 [15]: 0.794 µM (inconclusive)
GI50 [16]: 9.23 µM (inactive)
GI50 [17]: 10.3 µM (inactive)
GI50 [18]: 4.95 µM (inactive)

COc1cccc(C2CC(c3c(O)nc4ccc(Cl)cc4c3-c3ccccc3)=NN2S(C)(=O)=O)c1OC (stereo unspecified)
IC50 [1]: 78.2 µM (active)

O=C(O)c1cccc2c1C(=O)c1ccc(-c3ccc(F)cc3OCc3ccccc3)cc1S2(=O)=O
IC50 [19]: 50.5 µM (active)

CCN1CCN(CCCNC(=O)Cn2cc3c(n2)CCCC3)CC1
IC50 [9]: > 100 µM (inactive)
IC50 [10]: > 100 µM (not active)

CN(Cc1ccccc1)C(=O)CSc1cc(=O)n(C)c2ccccc12
EC50 [11]: > 79.4 µM (not active)
EC50 [12]: > 79.4 µM (inactive)
EC50 [13]: > 79.4 µM (not active)

CCOC(=O)c1c(C)nsc1S
IC50 [20]: 56.6 µM (active)
IC50 [21]: 30.5 µM (not active)
EC50 [11]: > 26.5 µM (not active)
EC50 [12]: > 79.4 µM (inactive)
EC50 [13]: > 79.4 µM (not active)

O=C(NC(Cc1ccc(I)cc1)C(=O)O)c1ccc(I)cc1 (stereo unspecified)
GI50 [16]: 38 µM (inactive)
GI50 [17]: > 100 µM (inactive)
GI50 [18]: 41.4 µM (inactive)

COC(=O)/C=C/C(=O)N1CCN(c2ccccc2)CC1
IC50 [9]: > 100 µM (inactive)
IC50 [10]: > 100 µM (not active)

Cc1ccc(C(=O)n2cnnc2N)cc1C
IC50 [2]: 1.87 µM (active)

OC(c1cc(C(F)(F)F)nc2c(Cl)cc(Cl)cc12)C1CCCCN1 (stereo unspecified)
CC50 [22]: 15.8 µM (active)
AC50 [23]: 21.6 µM (active)

Cc1ccc(C)c(S(=O)(=O)NCCCN2CCOCC2)c1
IC50 [2]: > 50 µM (not active)

O=C(Nc1c(-c2ccccc2)[nH][nH]c1=O)c1cnccn1
IC50 [4]: 42.5 µM (active)

CCCc1nc(SCC(=O)Nc2ccc(S(=O)(=O)N(C)C)cc2)c2ccccc2n1
IC50 [9]: > 100 µM (inactive)
IC50 [10]: > 100 µM (not active)

CCCCOC(=O)CNc1nnc(S)nc1O
EC50 [11]: 4.23 µM (active)
EC50 [12]: 5 µM (active)
EC50 [13]: 91.3 µM (not active)

Cn1c(SCc2nc(-c3ccc(Cl)cc3)no2)nnc1-c1cccs1
AC50 [24]: 3.1 µM (active)
AC50 [25]: 9.06 µM (active)

C=CCn1c(=O)/c(=C/c2ccc(O)cc2)s/c1=C(/C#N)c1nnc2n1CCCCC2
IC50 [20]: 58.7 µM (active)
IC50 [1]: 51.1 µM (active)

CC(NC(=O)C(C)NC(=O)C(N)CCP(C)(=O)O)C(=O)O (stereo unspecified)
GI50 [16]: > 100 µM (inactive)
GI50 [17]: > 100 µM (inactive)
GI50 [18]: > 31.6 µM (inactive)

C/C=C/c1ccc2c(c1)O[C@@H](CN(C)CC1CCCC1)[C@H](C)CN([C@@H](C)CO)S2(=O)=O
AC50 [23]: 42.1 µM (active)
AC50 [14]: 22.4 µM (active)

CC1C(=O)C(C)C(c2cccs2)N(N=O)C1c1cccs1 (stereo unspecified)
GI50 [16]: 36 µM (inactive)
GI50 [17]: > 100 µM (inactive)
GI50 [18]: 39.4 µM (inactive)

COc1ccccc1Cc1nc(-c2ccccc2)nn(C2OC(COC(C)=O)C(OC(C)=O)C(OC(C)=O)C2OC(C)=O)c1=S (stereo unspecified)
GI50 [16]: 19.6 µM (inactive)
GI50 [17]: 9.95 µM (inactive)
GI50 [18]: 21.9 µM (inactive)

c1ccc2[nH]c(CSc3ncnc4c3oc3ccccc34)nc2c1
IC50 [21]: > 93.1 µM (not active)
EC50 [11]: 5.6 µM (active)
EC50 [12]: 9.02 µM (active)
EC50 [13]: > 79.4 µM (not active)

COc1ccc(S(=O)(=O)CCC(=O)NC2CCCCC2)cc1
IC50 [9]: > 100 µM (inactive)
IC50 [10]: > 100 µM (not active)

COc1ccc(/C=C2\CCNC2=O)cc1
GI50 [16]: 82.4 µM (inactive)
GI50 [17]: > 100 µM (inactive)
GI50 [18]: > 100 µM (inactive)
